In patent publication US20140093558A1, “STABLE CRYSTAL MODIFICATIONS OF DOTAP CHLORIDE” (MERCK PATENT GMBH, priority 2011, published 2014):
Where two headings read alike, the source gives them in different places.

Tests used:
[1] = Hygroscopicity / handling properties; type: physicochemical; conditions: crystalline forms
[2] = Storage stability of crystalline DOTAP chloride, remaining content by HPLC; type: physicochemical; conditions: for remaining content of (2R,S)-DOTAP chloride (HPLC) / remaining content/purity of (2R,S)-DOTAP chloride (HPLC): exclusion of air; for stability values compared with crystalline (2R,S)-DOTAP chloride: storage as in Tables 1 and 1a
Description: In order to determine the stability of crystalline (2R,S)-DOTAP chloride, the substance is stored at 25° C. and 60% relative humidity (table 1) or at 40° C. and 75% relative humidity (table 1a) with exclusion of air. The remaining content of (2R,S)-DOTAP chloride is measured at periodic intervals and quoted in comparison to the initial value.
The purity and content of DOTAP chloride are determined by means of HPLC using the following method:
HPLC equipment: Agilent 1200 HPLC • column: ODS-3: 150×3 mm, 3 μm. GI Sciences: lnertsil • eluent A: 10 mM pentanesulfonic acid sodium salt in 0.085%ic aqueous H3PO4 • eluent B: 3.85 mM pentanesulfonic acid sodium salt in 94% acetonitrile containing 0.085%ic aqueous H3PO4
• runtime: 25 min • flow: 1.5 ml/min • pressure: ca. 220 bar • column temperature: 50° C. • injection volume: 10 μl
The stability determination can be repeated at any desired time, the values indicated in Tables 1 and 1a are reproducible.

[3] = Solubility in acetonitrile; type: physicochemical; conditions: room temperature
[4] = some in-vitro studies, compared with DOTAP chloride; cited from earlier work
[5] = amorphous form, normal atmospheric humidity levels; cited from earlier work
[6] = storage under protective gas at −20° C.; cited from earlier work
[7] = 25° C., 60% relative humidity, 0 months
[8] = 25° C., 60% relative humidity, 3 months
[9] = 25° C., 60% relative humidity, 6 months
[10] = 25° C., 60% relative humidity, 9 months
[11] = 25° C., 60% relative humidity, 12 months
[12] = 25° C., 60% relative humidity, 24 months
[13] = 25° C., 60% relative humidity, 36 months
[14] = 40° C., 75% relative humidity, 0 months
[15] = 40° C., 75% relative humidity, 3 months
[16] = 40° C., 75% relative humidity, 6 months
[17] = 40° C., 75% relative humidity, 9 months
[18] = 40° C., 75% relative humidity, 12 months

## CCCCCCCC/C=C\CCCCCCCC(=O)OCC(C[N+](C)(C)C)OC(=O)CCCCCCC/C=C\CCCCCCCC.[Cl-] (racemic) [(2R,S)-DOTAP chloride crystalline, (R,S)-1,2-dioleoyl-3-propyltrimethylammonium chloride]
[1]
  hygroscopicity: remarkably reduced hygroscopicity
[2]; [7]
  remaining content of (2R,S)-DOTAP chloride (HPLC): 99.5 % by weight
  remaining content/purity of (2R,S)-DOTAP chloride (HPLC): 99.7 Area-%
[2]; [8]
  remaining content of (2R,S)-DOTAP chloride (HPLC): 99.7 % by weight
  remaining content/purity of (2R,S)-DOTAP chloride (HPLC): 99.6 Area-%
[2]; [9]
  remaining content of (2R,S)-DOTAP chloride (HPLC): 99.4 % by weight
  remaining content/purity of (2R,S)-DOTAP chloride (HPLC): 99.5 Area-%
[2]; [10]
  remaining content of (2R,S)-DOTAP chloride (HPLC): 99.2 % by weight
  remaining content/purity of (2R,S)-DOTAP chloride (HPLC): 99.2 Area-%
[2]; [11]
  remaining content of (2R,S)-DOTAP chloride (HPLC): 99.5 % by weight
  remaining content/purity of (2R,S)-DOTAP chloride (HPLC): 99.5 Area-%
[2]; [12]
  remaining content of (2R,S)-DOTAP chloride (HPLC): 99.5 % by weight
  remaining content/purity of (2R,S)-DOTAP chloride (HPLC): 99.7 Area-%
[2]; [13]
  remaining content of (2R,S)-DOTAP chloride (HPLC): 99.7 % by weight
  remaining content/purity of (2R,S)-DOTAP chloride (HPLC): 99.3 Area-%
[2]; 25 ± 2° C., after 36 months
  degradation on storage: The above stability data confirms that crystalline DOTAP chloride is a stable substance. Even after 36-months no significant degradation was observed for the samples stored at 25 ± 2 °C
[2]; [14]
  remaining content of (2R,S)-DOTAP chloride (HPLC): 99.5 % by weight
  remaining content/purity of (2R,S)-DOTAP chloride (HPLC): 99.7 Area-%
[2]; [15]
  remaining content of (2R,S)-DOTAP chloride (HPLC): 99.6 % by weight
  remaining content/purity of (2R,S)-DOTAP chloride (HPLC): 99.6 Area-%
[2]; [16]
  remaining content of (2R,S)-DOTAP chloride (HPLC): 99.6 % by weight
  remaining content/purity of (2R,S)-DOTAP chloride (HPLC): 99.4 Area-%
[2]; [17]
  remaining content of (2R,S)-DOTAP chloride (HPLC): 98.9 % by weight
  remaining content/purity of (2R,S)-DOTAP chloride (HPLC): 99.3 Area-%
[2]; [18]
  remaining content of (2R,S)-DOTAP chloride (HPLC): 99.7 % by weight
  remaining content/purity of (2R,S)-DOTAP chloride (HPLC): 99.4 Area-%
[2]; accelerated conditions, 40 ± 2° C., after 12 months
  degradation on storage: The above stability data confirms that crystalline DOTAP Chloride is a stable substance. Even at accelerated conditions after 12-months no significant degradation was observed for the samples stored at 40 ± 2 °C
[2]; stored at 25° C. for 36 months
  stability determined by HPLC in relation to the starting value: higher than 99 % by weight and area-%
[2]; stored at 40° C. for 12 months
  stability determined by HPLC in relation to the starting value: higher than 99 % by weight and area-%
[3]
  solubility in acetonitrile: virtually insoluble

## CCCCCCCC/C=C\CCCCCCCC(=O)OCC(C[N+](C)(C)C)OC(=O)CCCCCCC/C=C\CCCCCCCC.COS(=O)(=O)[O-] (stereo not shown) [DOTAP methylsulfate]
[4]
  transfection rate: better transfection rates than DOTAP chloride

## CCCCCCCC/C=C\CCCCCCCC(=O)OCC(C[N+](C)(C)C)OC(=O)CCCCCCC/C=C\CCCCCCCC.[Cl-] (stereo not shown) [amorphous DOTAP chloride, 1,2-dioleoyloxy-3-trimethylammonium propane chloride]
[5]
  hygroscopicity: extremely hygroscopic
[6]
  shelf life guaranteed by the manufacturer: about 6 months

## (R)-1,2-dioleoyl-3-propyltrimethylammonium chloride [Crystalline (2R)-DOTAP chloride]
[1]
  hygroscopicity: remarkably reduced hygroscopicity
[2]
  stability values compared with crystalline (2R,S)-DOTAP chloride: Crystalline (2R)- and (2S)-DOTAP chloride show comparable stability values.

## (S)-1,2-dioleoyl-3-propyltrimethylammonium chloride [Crystalline (2S)-DOTAP chloride]
[1]
  hygroscopicity: remarkably reduced hygroscopicity
[2]
  stability values compared with crystalline (2R,S)-DOTAP chloride: Crystalline (2R)- and (2S)-DOTAP chloride show comparable stability values.
